In the NIST ThermoML archive (doi:10.1021/je301029j):
Numbers after ± are expanded uncertainties.

Tests used:
[1] = Crystal; DTA
[2] = Molar enthalpy of transition or fusion; conditions: Crystal; DSC

Q: What does the source list for O=P(CCCO)(CCCO)CCCO [tris(3-hydroxypropyl)phosphine oxide]?
A: Normal melting temperature [1]: 114.61 ± 0.63 °C; Molar enthalpy of transition or fusion [2]: 8.18 ± 0.177 kcal/mol
